Laboratory results reported in patent US10940139B2, “Compounds that interact with the Ras superfamily for the treatment of cancers, inflammatory diseases, rasopathies, and fibrotic disease” (Shy Therapeutics LLC, priority 2017, dated 2021).

molecular target: KRas G12D/Q61H double mutant (Homo sapiens (Human), UniProt P01116, G12D/Q61H); assay: Ras GTP binding domain inhibition assay (labeled GTP); settings: 20 μM compound; KRas G12D/Q61H double mutant; read-out: % Inhibition at 20 μM of K-Ras mutant and wild-type protein, KRas G12D Q61H
Method in brief: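 His-tagged KRas protein (3-10 μg/ml) was captured overnight at 4° C on nickel-coated wells in 50 mM Tris pH 7.5, 1 mM MgCl2, 1 mM DTT. Bound labeled GTP was read by fluorescence after washing.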

Sequence of KRas G12D/Q61H double mutant (P01116-2 other isoform, or with tags, fused parts or gaps G12D/Q61H): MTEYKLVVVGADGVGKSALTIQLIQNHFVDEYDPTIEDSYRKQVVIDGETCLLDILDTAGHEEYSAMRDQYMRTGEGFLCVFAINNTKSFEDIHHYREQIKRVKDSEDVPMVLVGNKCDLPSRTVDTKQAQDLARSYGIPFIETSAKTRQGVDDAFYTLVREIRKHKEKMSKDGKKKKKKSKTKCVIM

Row | inhibition at 20 µM [%] | Structure (SMILES)
1 | 1 to 25 | NCC(=O)NCc1ccc(Oc2ccc(F)c(F)c2)cc1C(F)(F)F
2 | 25 to 50 | Cc1occc1-c1nnc(SCC2CCN(C(=O)OCc3ccccc3)CC2)o1
3 | 25 to 50 | O=C(c1ccoc1)N1CCC(Nc2cc(Cl)ccc2OCC2CCC2)CC1
4 | 25 to 50 | FC(F)(F)C1CCCN(Cc2ccccc2CN2CCCC(C(F)(F)F)C2)C1 (stereo not drawn)
5 | 25 to 50 | Cc1cccc(-n2ccnc2SCCCc2nc(-c3cccs3)no2)c1
6 | 25 to 50 | O=S(=O)(Cc1ccc(OC(F)(F)F)cc1)Nc1cccnc1-n1cccn1
7 | 1 to 25 | CC(CC(N)=O)Nc1cc(C(F)(F)F)nc(-c2ccccn2)n1 (stereo not drawn)
8 | 25 to 50 | CC1CCC(NS(=O)(=O)CC(=O)N2CCCC2Cc2ccccc2Cl)CC1 (stereo not drawn)
9 | 25 to 50 | COc1ccc(C(=O)NC(C)Cc2ccc(-c3ccccc3)cc2)c(OC)c1OC (stereo not drawn)
10 | 25 to 50 | CCC(C)c1ccc(S(=O)(=O)NC(c2ccccc2)c2ccccn2)cc1 (stereo not drawn)
11 | 1 to 25 | COc1ccccc1CN(Cc1coc(-c2ccc(F)cc2)n1)Cc1cccs1
12 | 25 to 50 | CC1CN(C(=O)CSc2nnc(Cc3cccc4ccccc34)n2C2CCCCC2)CC(C)O1 (stereo not drawn)
13 | 25 to 50 | COc1ccc2c(c1)C(N(Cc1ccccc1)Cc1nc(CC(C)C)no1)CCO2 (stereo not drawn)
14 | 25 to 50 | Cc1c(C(=O)N(CCc2ccccc2)Cc2ccccc2)cccc1[N+](=O)[O-]
15 | 51 to 75 | CCc1noc(CN(CCN(Cc2nc(CC)no2)c2ccccc2)c2ccccc2)n1
16 | 25 to 50 | CC1CCCN(c2nc(-c3ccc(O)cc3O)cs2)C1 (stereo not drawn)
17 | 25 to 50 | Cc1occc1C(=O)OCC(COC(=O)c1ccoc1C)NC(=O)OC(C)(C)C
18 | 25 to 50 | CCOc1ccccc1CN(CCCn1ccnc1)C(=O)Nc1ccc(OC(F)F)c(Cl)c1
19 | 1 to 25 | Cc1nc(CN(C)CC23CC4CC(CC(C4)C2)C3)oc1C
20 | 51 to 75 | CCCn1c(-c2cccc(C)c2)nnc1S(=O)(=O)Cc1csc(-c2cccc(OC)c2)n1
21 | 1 to 25 | Cc1cc(C)c(C)c(S(=O)(=O)N2CCN(C(C)C(=O)NCc3ccc4c(c3)OCO4)CC2)c1C (stereo not drawn)
22 | 51 to 75 | O=C(COC1CCCC1)Nc1nnc(-c2ccccn2)[nH]1
23 | 25 to 50 | O=C(Oc1ccc(Oc2ccccc2)cc1)c1ccccc1-c1ccc(C(F)(F)F)cc1
24 | 25 to 50 | COC(=O)c1ccc(Oc2ccc(S(=O)(=O)N3CCCCC3)cc2NCc2cc(C)on2)cc1

Row | Structure (SMILES) | inhibition at 20 µM [%]
25 | COc1ccc(C(C)=O)cc1CC(C(=O)c1ccc(C2CCCCC2)cc1)N(C)C (stereo not drawn) | 25 to 50

same assay, conditions: 20 μM compound; read-out: % Inhibition at 20 μM KRas G12D Q61H

Row | inhibition at 20 µM [%] | Structure (SMILES)
26 | 51 to 75 | CCOCCC1CCN(C(=O)c2csc3c(O)nc(-c4ccccn4)nc23)CC1 [drawing 2676]
27 | 25 to 50 | O=C(c1csc2c(O)nc(-c3ccccn3)nc12)N1CCOC(c2ccc(Cl)cc2)C1 (stereo not drawn) [drawing 2730]
28 | 25 to 50 | COCC(O)CN1CCC(Nc2nc(-c3ccccn3)nc3c2CCC3)CC1 (stereo not drawn)
29 | 25 to 50 | Cn1c(CNCc2ccccc2OCc2ccccc2)nc2ccccc21
30 | 25 to 50 | CC(C)N1CC(C(=O)Nc2nnc(-c3ccccn3)[nH]2)CC1=O (stereo not drawn)
31 | 1 to 25 | Cc1ccc(CN(C(=O)c2cc(-c3ccccc3Cl)[nH]n2)C2CC2)o1
32 | 1 to 25 | Cc1nc(-c2ccccn2)nc(NC(C)CO)c1C (stereo not drawn)
33 | 25 to 50 | COc1ccc(OC)c(S(=O)(=O)N(Cc2ccccc2)Cc2ccccc2)c1
34 | 1 to 25 | CCOCCC1CCN(C(=O)c2csc3c(O)nc(N)nc23)CC1 [drawing 2660]
35 | 25 to 50 | O=C(c1ccc(-c2ccccc2Cl)o1)N(Cc1cccs1)C1CC1
36 | 25 to 50 | CC(C(N)=O)N1CCOC(c2nc(-c3ccccc3)cs2)C1 (stereo not drawn)
37 | 1 to 25 | CN(Cc1nc2ccccc2n1C)C(=O)c1cccc(Cl)n1
38 | 25 to 50 | O=c1[nH]c(-c2cc(OCC(F)F)ccn2)nc2cc(F)c(F)cc12
39 | 25 to 50 | COc1ccc(CC(=O)Nc2nc(-c3ccccn3)cs2)cc1
40 | 25 to 50 | O=C(Cc1ccc(Cl)cc1)Nc1nnc(-c2ccccn2)[nH]1
41 | 25 to 50 | Cc1ccc(C)c(OCc2nnc(SCC(C)C(=O)c3ccc(F)c(F)c3)o2)c1 (stereo not drawn)
42 | 51 to 75 | Cc1nc(-c2ccccn2)[nH]c(=O)c1CC(=O)NC1CCCCCCC1
43 | 1 to 25 | CCOC(=O)c1sc(N(C2CC2)S(=O)(=O)c2ccc(OC)c(C)c2)nc1C
44 | 1 to 25 | O=C(CCN1C(=O)NC2(CCCCC2)C1=O)Nc1nnc(-c2ccccn2)[nH]1
45 | 25 to 50 | Nc1nc(-c2ccccn2)nn1C(=O)Cc1csc(-c2ccccc2)n1
46 | 25 to 50 | O=C(NCC(=O)N1CCN(C2CC3CCC2C3)CC1)c1ccccn1 (stereo not drawn)
47 | 25 to 50 | Cc1nn(C)c(C)c1CC(=O)Nc1nnc(-c2ccccn2)[nH]1
48 | 1 to 25 | CCCCCCNC(=O)c1cc(S(=O)(=O)N(C)C)ccc1N1CCOCC1
49 | 25 to 50 | O=C(c1csc2c(O)nc(-c3ccccn3)nc12)N1CCN(c2ccccc2F)CC1 [drawing 2721]
50 | 25 to 50 | O=C(c1csc2c(O)nc(-c3ccccn3)nc12)N1CCc2ccccc2CC1 [drawing 2690]
51 | 1 to 25 | CC(=O)Nc1ccc(-c2nc(NC3CCCCC3)sc2C)cc1

Row | inhibition at 20 µM [%] | Structure (SMILES)
52 | 1 to 25 | CC(c1nc(N)nc(N(C)C)n1)N1CCN(c2cccc(C(F)(F)F)c2)CC1 (stereo not drawn)
53 | 25 to 50 | CC1CN(c2nc(-c3ccccn3)nc3c2CCC3)C(C)CN1C (stereo not drawn)
54 | 25 to 50 | Cc1n[nH]c(C2CN(C(C)c3ccncc3)CCO2)n1 (stereo not drawn)
55 | 1 to 25 | Nc1nc(O)c2scc(C(=O)NCCc3cccnc3)c2n1 [drawing 2670]
56 | 25 to 50 | O=C(CCN1C(=O)CSc2ccccc21)Nc1nnc(-c2ccccn2)[nH]1
57 | 25 to 50 | CC(Nc1nc(-c2ccccn2)nc2c1CCC2)c1ccncc1 (stereo not drawn)
58 | 1 to 25 | COc1ccc2c(c1)CCC2C(=O)Nc1nc(-c2ccccn2)nc2sccc12 (stereo not drawn) [drawing 2818]
59 | 25 to 50 | COc1ccccc1N1CCN(C(=O)c2csc3c(O)nc(-c4ccccn4)nc23)CC1 [drawing 2712]
60 | 25 to 50 | O=c1[nH]c(-c2ccccn2)nc2[nH]nnc12
61 | 1 to 25 | COCCOCCN(C)C(=O)c1csc2c(O)nc(N)nc12
62 | 25 to 50 | O=C(c1csc2c(O)nc(-c3ccccn3)nc12)N1CCN(c2cccc(Cl)c2)CC1 [drawing 2719]
63 | 25 to 50 | Cn1ccnc1COc1ccc(C(=O)Nc2nnc(-c3ccccn3)[nH]2)cc1
64 | 25 to 50 | Cc1cccc(C(=O)Nc2ccc(OS(=O)(=O)N3CCc4ccccc4C3)cc2)c1
65 | 1 to 25 | Nc1nc(O)c2scc(C(=O)N(CCO)CCOCCO)c2n1 [drawing 2669]
66 | 0 | O=S(=O)(CCc1ccccc1)N1CCCc2c(O)nc(-c3ccccn3)nc21 [drawing 2651]
67 | 25 to 50 | CCN(CC)CCC(C)Nc1nc(-c2ccccn2)nc2sccc12 (stereo not drawn) [drawing 2706]
68 | 51 to 75 | COCCCC(=O)N1CCCc2c(O)nc(-c3ccccn3)nc21 [drawing 2648]
69 | 25 to 50 | COc1ccccc1CC(=O)Nc1nnc(-c2ccccn2)[nH]1
70 | 25 to 50 | O=C(Nc1nc(-c2ccccn2)cs1)c1cccc(-n2cnnn2)c1
71 | 1 to 25 | CCc1cc(NNC(=O)C2CC2)nc(-c2ccccn2)n1
72 | 25 to 50 | Cc1nc(-c2ccccn2)nc(O)c1CCC(=O)N(C)c1cccc(C#N)c1
73 | 1 to 25 | O=C(NCCc1cnc(O)nc1)c1csc2nc(-c3ccccn3)nc(N3CCOCC3)c12 [drawing 2810]
74 | 25 to 50 | c1ccc(OCc2nc(CNCCn3cccn3)cs2)cc1
75 | 1 to 25 | CC(=O)Nc1cccc(C(C)N(Cc2ccccc2)Cc2nc(-c3ccc(Cl)cc3)no2)c1 (stereo not drawn)
76 | 25 to 50 | Cc1nc(C2CN(Cc3ccccc3F)CCO2)no1 (stereo not drawn)
77 | 25 to 50 | CNC(=O)CNc1nc(-c2ccccn2)nc2scc(-c3ccccc3)c12

same assay, conditions: 20 μM; read-out: KRas G12D Q61H % Inh.

Row | inhibition at 20 µM [%] | Structure (SMILES)
78 | 51 to 75 | O=C(Nc1nnc(-c2ccccn2)[nH]1)C1CCCN(c2cnccn2)C1 (stereo not drawn) [drawing 2527]
79 | 51 to 75 | O=C(Nc1nnc(-c2ccccn2)[nH]1)c1ccc(Oc2ccccc2)nc1 [drawing 2491]
80 | 76 to 100 | COc1cn(-c2ccccc2)nc1C(=O)Nc1nnc(-c2ccccn2)[nH]1 [drawing 2557]
81 | 51 to 75 | Cc1nc(-c2ccccn2)nc(O)c1CCC(=O)Nc1ccc(C(C)C)cc1 [drawing 2598]
82 | 25 to 50 | CCN(CC)S(=O)(=O)c1ccc(NCCOC)c(C(=O)NCCSCc2ccc(C)cc2)c1 [drawing 2633]
83 | 51 to 75 | Cc1oc(-c2ccccc2)nc1C(=O)Nc1nnc(-c2ccccn2)[nH]1 [drawing 2463]
84 | 51 to 75 | O=C(Cn1c(=O)cnc2ccccc21)Nc1nc(-c2ccccn2)cs1 [drawing 2569]
85 | 51 to 75 | Cc1ccc(CC(=O)Nc2nnc(-c3ccccn3)[nH]2)cc1 [drawing 2473]
86 | 51 to 75 | CC(Oc1ccccc1C#N)C(=O)Nc1nnc(-c2ccccn2)[nH]1 (stereo not drawn) [drawing 2510]
87 | 51 to 75 | NC(=O)c1ccc(OCC(=O)Nc2nnc(-c3ccccn3)[nH]2)cc1 [drawing 2538]
88 | 51 to 75 | O=C(Nc1nnc(-c2ccccn2)[nH]1)c1csc(-c2ccco2)n1 [drawing 2546]
89 | 25 to 50 | COC(=O)C(C)CN(Cc1ccccc1)c1nc(C(F)(F)F)ccc1C#N (stereo not drawn) [drawing 2631]
90 | 25 to 50 | Cc1nc(-c2ccccn2)nc(O)c1CCC(=O)NCC1COc2ccccc2O1 (stereo not drawn) [drawing 2599]
91 | 51 to 75 | Cc1ccc(-c2ccc(Oc3ccc(C(F)(F)F)cn3)c(C)c2)cc1 [drawing 2621]
92 | 51 to 75 | CC(C)c1noc(CCCC(=O)Nc2nnc(-c3ccccn3)[nH]2)n1 [drawing 2483]
93 | 25 to 50 | CS(=O)(=O)N1CCCc2cc(C(=O)N3CCCc4c(O)nc(-c5ccccn5)nc43)ccc21 [drawing 2645]
